From patent publication US4610816A (Schering Corporation, priority 1981, dated 1986)

Columns and labels:
enkephalinase A = target: T1, enkephalinase A (Rattus norvegicus, UniProt P07861); assay: Enkephalinase A inhibition, radiometric 3H-Met5-ENK degradation assay with TLC separation; assay type: biochemical, Sprague-Dawley rats; conditions: rat brain membrane enzyme, 40 nM 3H-Met5-ENK, 90 min at 37° C.; N.A. = No activity at <10^5 nM
T1 construct: from tissue; host or cells: Sprague-Dawley rat brain minus cerebellum; membrane pellet solubilised in 1% Triton X-100, DEAE Sephacel fraction eluting at 120-200 ml
T1 sequence (P07861 1-750): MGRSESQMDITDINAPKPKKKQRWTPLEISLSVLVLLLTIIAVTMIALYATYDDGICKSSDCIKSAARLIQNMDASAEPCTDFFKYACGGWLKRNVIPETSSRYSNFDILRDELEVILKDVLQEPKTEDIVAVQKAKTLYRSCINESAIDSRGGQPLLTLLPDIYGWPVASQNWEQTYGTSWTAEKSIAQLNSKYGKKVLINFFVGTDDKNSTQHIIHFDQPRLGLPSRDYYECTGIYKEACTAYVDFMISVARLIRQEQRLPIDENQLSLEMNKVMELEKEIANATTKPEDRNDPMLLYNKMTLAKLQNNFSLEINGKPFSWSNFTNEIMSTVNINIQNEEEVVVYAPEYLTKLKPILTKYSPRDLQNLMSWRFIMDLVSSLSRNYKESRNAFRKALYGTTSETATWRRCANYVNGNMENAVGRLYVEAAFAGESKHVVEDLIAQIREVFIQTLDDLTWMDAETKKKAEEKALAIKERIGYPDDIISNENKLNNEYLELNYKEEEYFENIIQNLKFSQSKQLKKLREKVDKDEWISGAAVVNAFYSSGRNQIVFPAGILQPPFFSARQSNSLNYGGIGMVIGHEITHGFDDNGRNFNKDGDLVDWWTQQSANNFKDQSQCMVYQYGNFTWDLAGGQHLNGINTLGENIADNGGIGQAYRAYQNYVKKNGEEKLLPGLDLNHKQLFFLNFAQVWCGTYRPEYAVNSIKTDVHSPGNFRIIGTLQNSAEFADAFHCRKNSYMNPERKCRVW

Male CFl mice = assay: Potentiation of the analgesic effects of (DAla2-Met5)-enkephalinamide (DAEAM), tail-flick test; assay type: in vivo; conditions: mouse tail-flick, DAEAM icv, latency 30 min later, dose at which half the test animals displayed analgesia
Excerpt: Male CFl mice (19-23 g) from Charles River Breeding Labs, Mass., are used (N=10/dose or dose combination). Tail-flick testing is done similar to that of Dewey and Harris, Methods in Narcotic Research, Eds., S. Ehrenpreis and A. Neidle, pp. 101-109, Marcel Dekker, Inc., New York, 1975 using a radiant heat noxious stimulus. Following determination of control latencies (typically 2-3 sec), the mice are first injected (sc or po) with either vehicle or drug and after an appropriate interval injected intracerebroventricularly (icv) with either vehicle (10 μl of saline) or DAEAM according to Haley and McCormick, Br., J. Pharmacol., 12,12 (1957). Tail-flick latencies are re-determined 30 min later, as this has previously been determined to be the time of peak analgesia for DAEAM, a cut-off of 10 sec is employed.

Row | Compound | IC50 (enkephalinase A) | DAEAM Potentiation ED50 (route) (Male CFl mice; po) | DAEAM Potentiation ED50 (route) (Male CFl mice; sc)
1 | CC(C)C[C@H](N[C@H](Cc1ccccc1)C(=O)O)C(=O)N[C@@H](Cc1ccccc1)C(=O)O [AG, N-[N-[(D-1-carboxy-2-phenylethyl)]-L-leucyl]-L-phenylalanine] | 12 nM |  | 
2 | CC(C)(C)C(=O)OCOC(=O)CCNC(=O)[C@H](Cc1ccccc1)N[C@@H](Cc1ccccc1)C(=O)OCc1ccccc1 [L] |  | 155 mg/k | 
3 | CC(C)(C)C(=O)OCOC(=O)CCNC(=O)[C@H](Cc1ccccc1)N[C@@H](Cc1ccccc1)C(=O)OCOC(=O)C(C)(C)C [M] |  | 37 mg/k | 
4 | O=C(O)CCNC(=O)[C@H](Cc1ccccc1)N[C@@H](Cc1ccc(-c2ccccc2)cc1)C(=O)O [AC, N-[N-[L-1-carboxy-2-(4-phenyl)phenylethyl]-L-phenylalanyl]-β-alanine] | 2.5 nM |  | 

More lines, main results first:

Row | IC50 (enkephalinase A) | Compound | DAEAM Potentiation ED50 (route) (Male CFl mice; po) | DAEAM Potentiation ED50 (route) (Male CFl mice; sc)
5 | 230 nM | O=C(CCNC(=O)[C@H](Cc1ccccc1)N[C@@H](Cc1ccccc1)C(=O)O)OCCOc1ccccc1 [P, N-[N-[(L-1-carboxy-2-phenylethyl)]-L-phenylalanyl]-β-alanine, 2-phenoxyethyl ester] | 30-60 mg/k | 
6 | 4.5 nM | CC(C)(C)OC(=O)N[C@@H](CNC(=O)[C@H](Cc1ccccc1)N[C@@H](Cc1ccccc1)C(=O)O)C(=O)O [AL, N-[N-(L-1-carboxy-2-phenylethyl)-L-phenylalanyl]-S-2-[N[(1,1-dimethylethoxy)carbonyl]amino]-β-alanine] |  | 
7 | 15 nM | O=C(O)CCNC(=O)[C@H](Cc1ccccc1)N[C@@H](Cc1ccccc1)C(=O)O [K, N-[N-[(L-1-carboxy-2-phenylethyl)]-L-phenylalanyl]-β-alanine] |  | 17 mg/k
